We go through 2 compounds from patent publication US3991193A, “Derivatives of 4(3H)-quinazolone, pharmaceutical compositions thereof and methods of use” (Roussel-UCLAF, priority 1973, dated 1976).

Where two headings read alike, the source gives them in different places.

Data set [1] has as its system rat. In words: Righting Reflex Test in Rat. Format: in vivo, Sprague-Dawley rat. To be noted: for ED50: male Sprague-Dawley rat, read-out: ED50 (loss of righting reflex). The method, then:
Groups of ten male Sprague-Dawley rats received the test compound i.p. or p.o. at various doses. The animals dosed i.p. were assessed for loss of righting reflex immediately after dosing and those dosed p.o. were assessed at 1/4, 1/2, 1, 2, 4 and 6 hours after dosing.

Data set [2] in a line: Acute Toxicity Tests in mouse. The conditions noted are these: in vivo. The method, then:
1. The activity of 2-methyl-3-(o-cyanophenyl)-4(3H)-quinazolone hydrochloride was investigated in the mouse by the following 5 tests.
Acute toxicities by p.o and i.p. routes were conducted using groups of ten mice at various dose levels. Groups dosed p.o. and i.p. were assessed for mortality at 24 hours.
The activity of methaqualone (2-methyl-3-(o-tolyl)-4-quinazolone) was investigated under the same conditions by using the test procedures indicated in the five tests above.

The subject of data set [3] is mouse. The data set is described as follows: Rotating Drum Test in Mouse. Format: in vivo. The conditions noted are these: 0.5 h, 30 min. after dosing, 2 min. test period, read-out: ED50 (dose causing 50% of the mice to fall off the drum). As for the experimental part:
Groups of ten mice received p.o. or i.p. the test compound at various dose levels, a control group receiving the vehicle alone by each route .30 min. after dosing each group of mice was placed on a 30 cm diameter rotating drum revolving at 1 revolution/minute. The mice were placed on the drum against its direction of movement and the number of mice falling off within a 2 min. test period was noted. From the results obtained a dose response line was constructed and the dose causing 50% of the mice to fall off the drum (ED50) was estimated.

In data set [4] the test system is mouse. In words: Potentiation of Hexobarbitone Sleeping Time in Mouse. It counts as in vivo. The conditions noted are these: i.p., Hexobarbitone Sodium 65 mg/kg i.v. The method, then: 4. Potentiation of Hexobarbitone Sleeping Time
A group of eight control mice received a dose of 65 mg/kg Hexobarbitone Sodium i.v. and subsequent sleeping times were recorded. A time value equivalent to mean sleeping time plus two standard deviations was established as a cut-off point. Other groups of eight mice received in identical dose of Hexobarbitone Sodium and at half the means control sleeping time were given various doses of the test compound i.p. The number of mice in each group asleep at the cut-off was recorded. A dose response curve was constructed and the dose at which 50% of the mice remained asleep at this cut-off point (ED50) was estimated.

A short description of data set [5]: Acute Toxicity Test in Rat. The conditions noted are these: in vivo. As for the experimental part:
(§1) II. The activity of 2-methyl-3-(o-cyanophenyl)-4(3H)-quinazolone hydrochloride was also investigated in rat by the following tests.
(§2) Groups of ten rats were dosed p.o. or i.p. with various doses of the test compound and after 24 hours were assessed for mortality.
(§3) The activity of Methaqualone was investigated in the same conditions.

The subject of data set [6] is mouse. The data set is described as follows: Righting Reflex Test in Mouse. Format: in vivo. To be noted: for ED50: at time of peak activity, read-out: ED50 (dose producing loss of righting reflex in 50% of a group of mice). As for the experimental part:
Groups of ten mice received the test compound orally or i.p. at various dose levels, a control group receiving vehicle alone. All mice were housed individually in glass beakers and were assessed for loss of righting reflex at 1/4, 1/2, 1, 2, 4 and 6 hours after dosing. […] From the results obtained a dose response line was constructed and the dose producing 50% loss of righting reflex was estimated for each observation time. This ED50 value (the dose producing loss of righting reflex in 50% of a group of mice) was quoted for the time of peak activity.

Data set [7] relates to mouse. In words: Anticonvulsant Test Against Electroshock in Mouse. It counts as in vivo. The conditions noted are these: 0.5 h, 30 min. after dosing, electroshock 55 mA, read-out: ED50 (dose protecting 50% of the mice from tonic extension of hind limbs). The method, then:
3. Anticonvulsant Test Against Electroshock
Groups of ten mice received p.o. or i.p. the test compound at various dose levels, a control group received the vehicle alone. 30 min. after dosing, each group was then shocked via auricular electrodes using the electroshock apparatus (Ugo Basile ECT apparatus for small mammals) using the following parameters: […]
______________________________________
The number of mice which underwent tonic extension of hind limbs was noted. The dose protecting 50% of the mice (ED50) was estimated.

Data set [8] concerns rat. The data set is described as follows: Acute Toxicity Test in Rat. As for the experimental part:
as §1, §2, §3

Where [9] appears, read: ip, i.p., assessed immediately after dosing.
Setting [10] is: po, p.o., assessed 1/4 to 6 hours after dosing.

For orientation: ED50 means the dose at which the effect has come halfway, by size or by number of responders. As usually defined, the LD50 is the dose expected to kill half of the subjects tested. High values mean lower toxicity, low ones greater toxicity.

Turning to `Cc1ccccc1-n1c(C)nc2ccccc2c1=O` [Methaqualone, 2-methyl-3-(o-tolyl)-4-quinazolone, reference compound], the ED50 in the data set on rat [1] (setting [9]) amounted to 48 mg/kg; with rat [1] (setting [10]) it was 170 mg/kg; in the data set with mouse [3] (ip, i.p.), 30 mg/kg; in the data set with mouse [3] (po, p.o.), 49 mg/kg; in the data set on mouse [6] (ip) it was 81 mg/kg; in the data set on mouse [6] (po) it was 160 mg/kg. The ED50 worked out at 21.5 mg/kg in the data set on mouse [7] (ip, i.p.) and 42 mg/kg in the data set with mouse [7] (po, p.o.). The LD50 at 24 h in data set [2] (ip) stood at 550 mg/kg; in data set [2] (po), 1700 mg/kg; in data set [5] (ip) it was 190 mg/kg; in data set [5] (po), 440 mg/kg. Besides, the “ED50 (dose at which 50% of the mice remained asleep at the cut-off point)” value in the data set with mouse [4] was 25 mg/kg.

As for `Cc1nc2ccccc2c(=O)n1-c1ccccc1C#N.Cl` [2-methyl-3-(o-cyanophenyl)-4(3H)-quinazolone hydrochloride], the ED50 with rat [1] (setting [9]) came to 28 mg/kg; with rat [1] (setting [10]) it was 106 mg/kg; with mouse [3] (ip, i.p.), 26.5 mg/kg; with mouse [3] (po, p.o.), 23 mg/kg; in the data set with mouse [6] (ip), 47 mg/kg; in the data set on mouse [6] (po) it was 112 mg/kg. Also, the ED50 with mouse [7] (ip, i.p.) was determined as 10 mg/kg; with mouse [7] (po, p.o.), 9 mg/kg. Further, the “effectiveness compared with Methaqualone” value in the data set with rat [1] (rat) is recorded as “much more effective than Methaqualone in the rat”. Moreover, the median lethal dose (LD50) at 24 h is 570 mg/kg in data set [2] (ip), 1600 mg/kg in data set [2] (po), above 300 mg/kg in data set [5] (ip) and above 1000 mg/kg in data set [5] (po). Also, the “toxicity compared with Methaqualone” value with rat [8] was “less toxic”. Further, the oral hypnotic effectiveness entry with mouse [6] (oral) was “very effective oral hypnotic in mouse”.
